# Measurements from US12606556B2, “TYK-2 inhibitor” (BEIGENE, LTD., priority 2020, dated 2026).
# Legend:
# [1] = molecular target: T1, JAK1-JH2 protein (aa 561-860, in-house) (Homo sapiens, UniProt P23458); assay: JAK1-JH2 biochemical assay (HTRF, blocking of JAK1-JH2 protein with its probe); assay type: binding; details: 1.17 nM recombinant JAK1-JH2, Probe 2
# T1 construct: JAK1-JH2 protein (aa 561-860, in-house); made in house
# Method: Assay B: JAK1-JH2 Biochemical Assay
# Compounds disclosed herein were tested for blocking of JAK1-JH2 protein (aa 561-860, in-house) with its probe in an assay based on Homogeneous Time Resolved Fluorescence. Compound dilution is done according to the following protocol: (1) Prepare 500× compounds solution in DMSO from 500 uM by 5-fold dilution, total 10 doses were included; (2) Prepare 10× compounds solution in an assay buffer containing 20 mM HEPES, pH 7.5, 10 mM MgCl2, 0.005% BSA, 2 mM DTT, 0.015% Brij-35 by transferring 1 μl serial 500× stock solution into 49 μl assay buffer. 4 μL of 1.17 nM recombinant JAK1-JH2 protein was pre-incubated with 1 μl of 10×serial dilution of compounds at room temperature for 0.5 hour. […] The HTRF signals (ex337 nm, em620 nm/665 nm) were read on BMG PHERAstar FS instrument. The inhibition percentage of JAK1 interaction with its probe in presence of increasing concentrations of compounds was calculated based on the ratio of fluorescence at 615 nm to that at 665 nm. The IC50 for each compound was derived from fitting the data to the four-parameter logistic equation by Dotmatics.
# [2] = system: JAK2, TYK2/p-STAT4 (Tyr693) activated by IL-12 in NK-92 cell line; assay: IL-12-JAK2, TYK2/p-STAT4 (Tyr693) inhibition cellular assay; assay type: cell-based; details: for IC50: NK92, 0.5 h, NK-92 cells, IL-12 40 ng/ml, 30 min, read-out: Cellular assay pSTAT4/IL-12 IC50; for Cellular assay Selectivity fold (TYK2/JAK1): pSTAT4/IL-12 vs pSTAT3/IL-6 cellular IC50
# Description: Assay C: IL-12-JAK2, TYK2/p-STAT4 (Tyr693) Inhibition IC50 Cellular Assay
# To evaluate the inhibition effect of compounds disclosed herein on JAK2, TYK2/p-STAT4 (Tyr693) activated by IL-12 in NK-92 cell line, NK-92 cells were collected and washed 3 times by DPBS and resuspended in MEM-α(GIBCO,Cat #12561056) with 10% FBS (Gibco, Cat #10099, Lot #1891605), without IL-2 (R&D systems,Cat #202-IL), starved overnight. Cells were collected and resuspended in 1640 medium (phenol red free, Gibco, Cat #11835-030) with 0.1% BSA, and 12.5 μl/5×10^4/well cell suspension were seeded to the 96-well plate (Corning, Cat #3799). Then cells were treated with compounds diluted in 0.2% DMSO 1640 medium, at 37° C., 1 h. Dilution is done according to the following protocol: (1) make 500× compounds solution in DMSO from 5 mM by 4-fold dilution, total 8 doses were included; (3) make 2× compounds solution in assay medium by transferring 0.5 μl serial 500× stock solution into 125 μl assay medium; (4) 15 μl of 2× serial solution is added to cells and incubate at 37° C. for 1 h, the final compound conc. is 10000,2500,625,156.25,39,9.8,2.4 and 0.61 nM, respectively. After 1 h, cells were treated with 2.5 μl medium containing IL-12 at 37° C. (R&D systems, Cat #219-IL-005, final conc.40 ng/ml), 30 min. Following cells were lysed with 7.5 μl lysis buffer at RT, shaking on shaker for 1 h. 10 μL of cell lysate were transferred to a PE 384-well Proxiplate detection plate, and 5 μL of pre-mixed Alphascreen beads were added to each well. Covered the plate with a plate sealer, span 1000 rpm for 1 min, mix, Incubated overnight at room temperature. Read on BMG PheraStar with Alphascreen protocol. IC 50 values were calculated by fitting dependent data to the four-parameter logistic model using dotmatics software. The assay was performed by using AlphaLISA SureFire Ultra p-STAT4 (Tyr693) Assay Kit—High Volume (PE, Cat #ALSU-PST4-A-HV).
# [3] = system: JAK1/p-STAT3(Tyr705) activated by IL-6 in TF-1 cell line; assay: IL-6-JAK1/p-STAT3(Tyr705) inhibition cellular assay; assay type: cell-based; details: Homo sapiens, 0.5 h; TF-1 cells, IL-6 50 ng/ml, 30 min; read-out: Cellular assay pSTAT3/IL-6 IC50
# Description: Assay D: IL-6-JAK1/p-STAT3(Tyr705) Inhibition IC50 Cellular Assay
# To evaluate the inhibition effect of compounds disclosed herein on JAK1/p-STAT3(Tyr705) activated by IL-6 in TF-1 cell line, TF-1 cells were collected and washed 3 times by DPBS and resuspended in RPMI-1640 (phenol red free, Gibco, Cat #11835-030) with 0.1% FBS (Gibco, Cat #10099, Lot #1891605), without GM-CSF(R&D systems,Cat #215-GM-050), starved overnight. Cells were collected and resuspended in 1640 medium (phenol red free, Gibco, Cat #11835-030) with 0.1% BSA, and 12.5 μl/10×10^4/well cell suspension were seeded to the 96-well plate (Corning, Cat #3799). Then cells were treated with compounds diluted in 0.2% DMSO 1640 medium, at 37° C., 1 h. Dilution is done according to the following protocol: (1) make 500× compounds solution in DMSO from 5 mM by 4-fold dilution, total 8 doses were included; (3) make 2× compounds solution in assay medium by transferring 0.5 μl serial 500× stock solution into 125 μl assay medium; (4) 15 μl of 2× solution is added to cells and incubate at 37° C. for 1 h, the final compound conc. is 10000,2500,625,156.25,39,9.8,2.4 and 0.61 nM, respectively. After 1 h, cells were treated with 2.5 μl medium containing IL-6 at 37° C. (R&D systems, Cat #206-IL-010, final conc.50 ng/ml), 30 min. Following cells were lysed with 10 μl lysis buffer at RT, shaking on shaker for 1 h. 16 μL of cell lysate were transferred to a PE 384-well HTRF detection plate, and 4 μL of pre-mixed HTRF antibodies were added to each well. Covered the plate with a plate sealer, span 1000 rpm for 1 min, mix, Incubated overnight at room temperature. Read on BMG PheraStar with HTRF protocol (337 nm-665 nm-620 nm). IC 50 values were calculated by fitting dependent data to the four-parameter logistic model using dotmatics software. The assay was performed by using HTRF Phospho-STAT3(Tyr705) Cellular Assay Kit (Cisbio, Cat #62AT3PEG).
# [4] = molecular target: T2, TYK2-JH2 (aa 575-869, in-house) protein (Homo sapiens, UniProt P29597); assay: TYK2-JH2 biochemical assay (HTRF, blocking of TYK2-JH2 protein with its probe); assay type: binding; details: for IC50: HTRF, 0.2 nM recombinant TYK2-JH2, Probe 1; for Biochemical assay Selectivity fold (TYK2/JAK1): TYK2-JH2 vs JAK1-JH2 biochemical IC50
# T2 construct: TYK2-JH2 (aa 575-869, in-house) protein; made in house
# Method: Assay A: TYK2-JH2 Biochemical Assay
# Compounds disclosed herein were tested for blocking of TYK2-JH2 (aa 575-869, in-house) protein with its probe in an assay based on Homogeneous Time Resolved Fluorescence.
# Compound dilution is done according to the following protocol: (1) Prepare 500× compounds solution in DMSO from 500 uM by 5-fold dilution, total 10 doses were included; (2) Prepare 10× compounds solution in an assay buffer containing 20 mM HEPES, pH 7.5, 10 mM MgCl2, 0.005% BSA, 2 mM DTT, 0.015% Brij-35 by transferring 1 μl serial 500× stock solution into 49 μl assay buffer. 4 μl of 0.2 nM recombinant TYK2-JH2 protein was pre-incubated with 1 μl of 10×serial dilution of compounds at room temperature for 0.5 hour. Then 5 μl of 10 nM in-house Probe 1 (6-((3,5-dimethylphenyl)amino)-8-((4,26-dioxo-30-((3aS,4S,6aR)-2-oxohexahydro-1H-thieno[3,4-d]imidazol-4-yl)-7,10,13,16,19,22-hexaoxa-3,25-diazatriacontyl)amino)imidazo[1,2-b]pyridazine-3-carboxamide, KD=10 nM), 5 μl Mab Anti-6His Tb cryptate Gold (Cat: 61HI2TLB, Cisbio Bioassays) and Streptavidin-XL665(Cat: 610SAXLB, Cisobio Bioassays) mixture were added to plate and further incubated at room temperature for 1 hour. The HTRF signals (ex337 nm, em620 nm/665 nm) were read on BMG PHERAstar FS instrument. The inhibition percentage of TYK2 interaction with its probe in presence of increasing concentrations of compounds was calculated based on the ratio of fluorescence at […]. The IC50 for each compound was derived from fitting the data to the four-parameter logistic equation by Dotmatics.
# T1 sequence (P23458 561-860): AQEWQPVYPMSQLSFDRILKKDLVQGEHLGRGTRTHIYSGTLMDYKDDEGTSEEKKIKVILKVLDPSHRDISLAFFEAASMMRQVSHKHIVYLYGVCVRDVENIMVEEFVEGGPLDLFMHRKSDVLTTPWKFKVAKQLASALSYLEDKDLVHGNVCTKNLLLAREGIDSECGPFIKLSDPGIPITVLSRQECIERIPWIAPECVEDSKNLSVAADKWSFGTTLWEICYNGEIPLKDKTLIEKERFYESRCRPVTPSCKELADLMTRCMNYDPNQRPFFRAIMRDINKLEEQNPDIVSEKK
# T2 sequence (P29597 575-869): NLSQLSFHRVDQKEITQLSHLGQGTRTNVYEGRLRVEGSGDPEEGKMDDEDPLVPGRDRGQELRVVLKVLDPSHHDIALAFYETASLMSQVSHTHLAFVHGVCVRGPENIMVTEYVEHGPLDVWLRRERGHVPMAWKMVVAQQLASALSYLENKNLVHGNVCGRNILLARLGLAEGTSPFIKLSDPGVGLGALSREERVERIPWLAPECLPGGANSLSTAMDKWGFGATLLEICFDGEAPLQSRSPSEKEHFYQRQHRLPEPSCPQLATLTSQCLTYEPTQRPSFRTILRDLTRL
IC50 [1] [nM],IC50 [2] [nM],IC50 [3] [nM],IC50 [4] [nM],Biochemical assay Selectivity fold (TYK2/JAK1) [4] [fold],Compound,Cellular assay Selectivity fold (TYK2/JAK1) [2] [fold]
0.56,15.4,1640,0.056,10,CNC(=O)c1nnc(NC(=O)C2CC2)cc1Nc1nc2ccc(N3CC(C)(N(C)C)C3)cn2n1 [Example E6],106
0.78,47.8,> 10000,0.084,9,"CNC(=O)c1nnc(NC(=O)C2CC2)cc1Nc1nc2ccc(N3CC(c4ncn(C)n4)C3)cn2n1 [Example E7, 6-(cyclopropanecar-boxamido)-N-methyl-4-((6-(3-(1-methyl-1H-1,2,4-triazol-3-yl)azetidin-1-yl)-[1,2,4]triazolo [1,5-a]pyridin-2-yl)amino)pyridazine-3-carboxamide]",>209
3,13.8,> 10000,0.044,68,"CNC(=O)c1nnc(NC(=O)C2CC2)cc1Nc1nc2ccc(N3CC(C)(C)C3)cn2n1 [Example E8, 6-(cyclopropanecar-boxamido)-4-((6-(3,3-dimethylazetidin-1-yl)-[1,2,4]triazolo[1,5-a]pyridin-2-yl)amino)-N-methylpyridazine-3-carboxamide]",>724
2.4,19.6,> 10000,0.097,25,"CNC(=O)c1nnc(NC(=O)C2CC2)cc1Nc1nc2ccc(N3CC(F)C3)cn2n1 [Example E9, 6-(cyclopropanecar-boxamido)-4-((6-(3-fluoroazetidin-1-yl)-[1,2,4]triazolo[1,5-a]pyridin-2-yl)amino)-N-methylpyridazine-3-carboxamide]",>510
3,47,> 10000,0.15,20,"CNC(=O)c1nnc(NC(=O)C2CC2)cc1Nc1nc2ccc(N3CC(F)(F)C3)cn2n1 [Example E10, 6-(cyclopropanecar-boxamido)-4-((6-(3,3-difluoroazetidin-1-yl)-[1,2,4]triazolo[1,5-a]pyridin-2-yl)amino)-N-methylpyridazine-3-carboxamide]",>212
1.7,6.31,9930,0.024,71,"CNC(=O)c1nnc(NC(=O)C2CC2)cc1Nc1nc2ccc(N3CCC(N4CC(F)(F)C4)CC3)cn2n1 [Example E12, 6-(cyclopropanecar-boxamido)-4-((6-(4-(3,3-difluoroazetidin-1-yl)piperidin-1-yl)-[1,2,4]triazolo[1,5-a]pyridin-2-yl)amino)-N-methylpyridazine-3-carboxamide]",1478
2.6,15.9,> 10000,0.047,55,"CNC(=O)c1nnc(NC(=O)C2CC2)cc1Nc1nc2ccc(N3CCCC(N4CC(F)(F)C4)C3)cn2n1 (stereo not drawn) [Example E13, 6-(cyclopropanecar-boxamido)-4-((6-(3-(3,3-difluoroazetidin-1-yl)piperidin-1-yl)-[1,2,4]triazolo[1,5-a]pyridin-2-yl)amino)-N-methylpyridazine-3-carboxamide]",>629
1.8,42.6,> 10000,0.11,16,"CNC(=O)c1nnc(NC(=O)C2CC2)cc1Nc1nc2ccc(N3CC(N4CCCCC4)C3)cn2n1 [Example E14, 6-(cyclopropanecar-boxamido)-N-methyl-4-((6-(3-(piperidin-1-yl)azetidin-1-yl)-[1,2,4]triazolo [1,5-a]pyridin-2-yl)amino) pyridazine-3-carboxamide]",>234
